In patent publication US5663152A, “Potentiators for aminoglycosides” (Asahi Kasei Kogyo Kabushiki Kaisha, priority 1995, dated 1997):
≈ marks a conversion by molar mass, not a printed value. Like-named read-outs stand apart in the source and are kept apart here.

Tests used:
[1] = test system: Escherichia coli (ATCC 10536); experiment: Minimum inhibitory concentration by broth dilution, Escherichia coli (ATCC 10536); type: cell-based; conditions: for MIC: Escherichia coli, ATCC10536, 48 h, read-out: MIC Alone
Excerpt: (§1) Microorganism strains were supplied by the ATCC. Staphylococcus aureus is a clinically significant member of the gram-positive group of bacterial pathogens. It gives rise to serious infections, and may produce bacteremia, endocarditis, and meningitis. Methicillin-resistant strains of Staphylococcus aureus were chosen for evaluation because they present a significant medical problem, in view of the fact that methicillin is the drug of choice for treatment of S. aureus infection in the common penicillin-resistant strains.
(§2) Escherichia coli is also a gram-negative pathogenic bacillus which may cause enteritis, peritonitis, or cystitis.
(§3) The MICs were determined by the broth dilution method (Kubo et al. J. Agric. Food Chem. 1992, 40, 245-248). Test compounds were dissolved in Di-Methyl Formamide("DMF") to make stock solution at concentrations of 80, 40, 20, or 10 mg/ml depending upon the potency and solubility. An aliquot of 0.01 ml of the stock solution was added to a tube containing 0.99 ml of media to get the initial concentration of testing solution. Serial two-fold dilutions were made by mixing 0.5 ml of testing solution with 0.5 ml of blank medium. A 0.5 ml aliquot of diluted inoculum containing an appropriate concentration of the test microorganism (1:100 dilution of the initial inoculum) was then added into each tube containing 0.5 ml serial dilutions of the test compound. After incubating for 2 days at 37° C., the tube was evaluated for visible growth. The MIC was determined as the lowest concentration of a compound which prevented visible microorganism growth. A culture growth control without compound (solvent only) and several culture sensitive reference agents were used as positive controls. The assays were performed in duplicate.

[2] = test system: Escherichia coli (ATCC 10536); experiment: Minimum biocidal concentration, Escherichia coli (ATCC 10536); type: cell-based; conditions: for MBC: Escherichia coli
Excerpt: as §1, §2
(§4) After determining the MIC, 0.1 ml of a ten-fold dilution from each tube showing no turbidity was plated onto chemical free nutrient agar plates. After 24 hours of incubation, the colonies were counted. The MBC was the lowest concentration of antibacterial compound that decreased the initial inoculum population by >99.9 percent. The initial population for E. coli. was 1×10^7 -6×10^7 colony forming units (CFU) per ml; for P. aeruginosa was 1×10^6 -5×10^6 CFU per ml; and for methicillin-resistant Staphylococcus aureus (MRSA) was 2×10^6 -7×10^6 CFU per ml.

[3] = test system: Methicillin-resistant Staphylococcus aureus (ATCC 33591); experiment: Minimum inhibitory concentration by broth dilution, MRSA (ATCC 33591); type: cell-based; conditions: substance alone, 2 days at 37° C.; for MIC: Staphylococcus aureus, 48 h
Excerpt: as §1, §3

[4] = test system: Methicillin-resistant Staphylococcus aureus (ATCC 33591); experiment: Minimum biocidal concentration, MRSA (ATCC 33591); type: cell-based; conditions: substance alone, >99.9 percent decrease of inoculum; for MBC: Staphylococcus aureus
Excerpt: as §1, §4

[5] = occurring in foods, routinely consumed in the diet; in words; cited from earlier work
[6] = test system: Pseudomonas aeruginosa (ATCC 10145); experiment: Minimum inhibitory concentration by broth dilution, Pseudomonas aeruginosa (ATCC 10145); type: cell-based; conditions: for MIC: Pseudomonas aeruginosa, ATCC10145, 48 h, read-out: MIC Alone
Excerpt: as §1
(§5) Pseudomonas aeruginosa was also chosen for evaluation. P. aerugtnosa is a gram-negative pathogenic bacillus which may cause urinary tract infections or pneumonia.
as §3

[7] = test system: Pseudomonas aeruginosa (ATCC 10145); experiment: Minimum biocidal concentration, Pseudomonas aeruginosa (ATCC 10145); type: cell-based; conditions: for MBC: Pseudomonas aeruginosa, ATCC10145, read-out: MBC Alone
Excerpt: as §1, §5, §4

[8] = in words; cited from earlier work
[9] = test system: gram-negative and gram-positive organisms; conditions: in words, cited from earlier work
[10] = test system: aminoglycoside-inactivating enzymes; conditions: in words; cited from earlier work
[11] = E. coli ATCC 10536, substance alone, 2 days at 37° C.
[12] = MRSA ATCC 33591, read-out: MIC Alone
[13] = MRSA ATCC 33591, read-out: MBC Alone
[14] = read-out: MIC Alone, MRSA ATCC 33591
[15] = read-out: MBC Alone, MRSA ATCC 33591

Compound	MIC [3, 12]	MBC [4, 13]	toxicity of potentiators [5]	MIC Alone ([3]; MRSA ATCC 33591)	MBC Alone ([4]; MRSA ATCC 33591)	side effects [8]	MIC [1]	MBC ([2]; ATCC10536, read-out: MBC Alone)	MIC [6]	MBC [7]	MIC [3, 14]	MBC [4, 15]	antibacterial activity in vitro [9]	further results
CC=Cc1ccc(OC)cc1 [Anethole, anethole]	> 1600 µg/mL	> 1600 µg/mL	routinely consumed in the diet without apparent harm											MIC [1, 11]: 400 µg/mL (≈ 2.7 mM); MBC ([2]; ATCC10536, E. coli ATCC 10536, substance alone, >99.9 percent decrease of inoculum, read-out: MBC Alone): 800 µg/mL (≈ 5.4 mM)
Gentamicin [reference compound]				1.56 µg/mL	1.56 µg/mL	strong side effects, such as nephrotoxicity, ototoxicity, or neuromuscular blockade								MIC Alone [1, 11]: 0.78 µg/mL; MBC Alone ([2]; E. coli ATCC 10536, substance alone, >99.9 percent decrease of inoculum): 0.78 µg/mL; MIC Alone ([6]; P. aeruginosa ATCC 10145, substance alone, 2 days at 37° C.): 0.39 µg/mL; MBC Alone ([7]; P. aeruginosa ATCC 10145, substance alone, >99.9 percent decrease of inoculum): 0.78 µg/mL
CCCC=CC=O [2-Hexenal, 2-hexenal]			routinely consumed in the diet without apparent harm	200 µg/mL (≈ 2.04 mM)	400 µg/mL (≈ 4.08 mM)		200 µg/mL (≈ 2.04 mM)	200 µg/mL (≈ 2.04 mM)	200 µg/mL (≈ 2.04 mM)	200 µg/mL (≈ 2.04 mM)	400 µg/mL (≈ 4.08 mM)	800 µg/mL (≈ 8.15 mM)		
NCC[C@H](O)C(=O)N[C@@H]1C[C@H](N)[C@@H](O[C@H]2O[C@H](CN)[C@@H](O)[C@H](O)[C@H]2O)[C@H](O)[C@H]1O[C@H]1O[C@H](CO)[C@@H](O)[C@H](N)[C@H]1O [Amikacin]	200 µg/mL (≈ 0.342 mM)	200 µg/mL (≈ 0.342 mM)				strong side effects, such as nephrotoxicity, ototoxicity, or neuromuscular blockade							broad range of activity against gram-negative and gram-positive organisms	degradation by aminoglycoside-inactivating enzymes [10]: resists degradation by most aminoglycoside-inactivating enzymes
NC[C@H]1O[C@H](O[C@H]2[C@H](O)[C@@H](O[C@H]3O[C@H](CO)[C@@H](O)[C@H](N)[C@H]3O)[C@H](N)C[C@@H]2N)[C@H](N)C[C@@H]1O [Tobramycin]	800 µg/mL (≈ 1.71 mM)	1600 µg/mL (≈ 3.42 mM)				strong side effects, such as nephrotoxicity, ototoxicity, or neuromuscular blockade							broad range of activity against gram-negative and gram-positive organisms	mode of action ([9]; in vitro tests): bactericidal and that it acts by interfering with protein synthesis in bacterial cells
c1ccc2[nH]ccc2c1 [Indole, indole]			routinely consumed in the diet without apparent harm				800 µg/mL (≈ 6.83 mM)	800 µg/mL (≈ 6.83 mM)	400 µg/mL (≈ 3.41 mM)	800 µg/mL (≈ 6.83 mM)	800 µg/mL (≈ 6.83 mM)	1600 µg/mL (≈ 13.7 mM)		
